The values below come from ChEMBL document CHEMBL4219034, “Synthesis, antimicrobial activity, structure-activity relationship and cytotoxic studies of a new series of functionalized (Z)-3-(2-oxo-2-substituted ethylidene)-3,4-dihydro-2H-benzo[b][1,4]oxazin-2-ones” (Bioorg Med Chem Lett, 2017).

≈ marks a conversion by molar mass, not a printed value. Calls of active or inactive are those of the source. The rule behind the calls is not given here.

Data set [1] has as its system Streptomyces griseus. Put plainly: Antibacterial activity against Streptomyces griseus MTCC 4734 at 100 ug/ml incubated for 12 hrs by agar disc diffusion assay. Type of data set: functional. Particulars: MTCC 4734, 12 h, read-out: IZ.
Data set [2] has as its system Streptomyces griseus. Briefly: Antibacterial activity against Streptomyces griseus MTCC 4734 incubated for 24 hrs by serial dilution method. Type of data set: functional. Particulars: MTCC 4734, 24 h.
Data set [3] in a line: Cytotoxicity against mouse NIH/3T3 cells assessed as cell viability at 100 ug/ml after 72 hrs by MTT assay relative to control. The format is cell-based, NIH3T3. Particulars: read-out: Activity.
The test system of data set [4] is Staphylococcus aureus. Put plainly: Antibacterial activity against Staphylococcus aureus MTCC 3381 incubated for 24 hrs by serial dilution method. Type of data set: functional. Particulars: MTCC 3381, 24 h.
The nature of data set [5]: Cytotoxicity against mouse NIH/3T3 cells assessed as cell viability at 25 ug/ml after 72 hrs by MTT assay relative to control. Particulars: read-out: Activity. Type of data set: cell-based, NIH3T3.
Data set [6] relates to Trichoderma reesei. Put plainly: Antifungal activity against Trichoderma reesei ATCC 13631 incubated for 24 hrs by serial dilution method. The format is functional.
The test system of data set [7] is Aspergillus niger. Put plainly: Antifungal activity against Aspergillus niger ATCC 9029 at 100 ug/ml incubated for 72 hrs by agar disc diffusion assay. Type of data set: functional. Particulars: for zone of inhibition at 100 µg/mL: ATCC 9029, 72 h, read-out: IZ.
The subject of data set [8] is Talaromyces funiculosus. Put plainly: Antifungal activity against Penicillium funiculosum ATCC 11797 incubated for 24 hrs by serial dilution method. The format is functional. Particulars: ATCC 11797, 24 h.
For data set [9], the system named is Bacillus subtilis. Put plainly: Antibacterial activity against Bacillus subtilis MTCC 10619 incubated for 24 hrs by serial dilution method. Type of data set: functional. Particulars: MTCC 10619, 24 h.
Data set [10] deals with Bacillus subtilis. Put plainly: Antibacterial activity against Bacillus subtilis MTCC 10619 at 100 ug/ml incubated for 12 hrs by agar disc diffusion assay. The format is functional. Particulars: MTCC 10619, 12 h, read-out: IZ.
The test system of data set [11] is Escherichia coli. Briefly: Antibacterial activity against Escherichia coli MTCC 443 at 100 ug/ml incubated for 12 hrs by agar disc diffusion assay. Type of data set: functional. Particulars: MTCC 443, 12 h, read-out: IZ.
Data set [12] has as its system Staphylococcus aureus. Put plainly: Antibacterial activity against Staphylococcus aureus MTCC 3381 at 100 ug/ml incubated for 12 hrs by agar disc diffusion assay. The format is functional. Particulars: MTCC 3381, 12 h, read-out: IZ.
Data set [13] deals with Escherichia coli. Put plainly: Antibacterial activity against Escherichia coli MTCC 443 incubated for 24 hrs by serial dilution method. The format is functional. Particulars: MTCC 443, 24 h.
Data set [14] concerns Trichoderma reesei. Briefly: Antifungal activity against Trichoderma reesei ATCC 13631 at 100 ug/ml incubated for 72 hrs by agar disc diffusion assay. Type of data set: functional. Particulars: for zone of inhibition at 100 µg/mL: ATCC 13631, 72 h, read-out: IZ.
The subject of data set [15] is Aspergillus niger. Put plainly: Antifungal activity against Aspergillus niger ATCC 9029 incubated for 24 hrs by serial dilution method. The format is functional.
Data set [16] has as its system Fusarium oxysporum. Briefly: Antifungal activity against Fusarium oxysporum ATCC 62506 incubated for 24 hrs by serial dilution method. Type of data set: functional. Particulars: ATCC 62506, 24 h.
Data set [17] is described as follows: Cytotoxicity against mouse NIH/3T3 cells assessed as cell viability at 50 ug/ml after 72 hrs by MTT assay relative to control. The format is cell-based, NIH3T3. Particulars: read-out: Activity.
Data set [18] has as its system Staphylococcus aureus. Briefly: Potency index, ratio of ampicillin MIC to compound MIC for Staphylococcus aureus MTCC 3381 by serial dilution method. Type of data set: functional.
Data set [19] concerns Talaromyces funiculosus. Put plainly: Antifungal activity against Penicillium funiculosum ATCC 11797 at 100 ug/ml incubated for 72 hrs by agar disc diffusion assay. The format is functional. Particulars: ATCC 11797, 72 h, read-out: IZ.
Data set [20] in a line: Cytotoxicity against mouse NIH/3T3 cells assessed as cell viability at 250 ug/ml after 72 hrs by MTT assay relative to control. Type of data set: cell-based, NIH3T3. Particulars: read-out: Activity.
Data set [21] deals with Fusarium oxysporum. Put plainly: Antifungal activity against Fusarium oxysporum ATCC 62506 at 100 ug/ml incubated for 72 hrs by agar disc diffusion assay. Type of data set: functional. Particulars: ATCC 62506, 72 h, read-out: IZ.
The test system of data set [22] is Bacillus subtilis. Put plainly: Potency index, ratio of ampicillin MIC to compound MIC for Bacillus subtilis MTCC 10619 by serial dilution method. Type of data set: functional.
The subject of data set [23] is Streptomyces griseus. Briefly: Potency index, ratio of ampicillin MIC to compound MIC for Streptomyces griseus MTCC 4734 by serial dilution method. Type of data set: functional.
For data set [24], the system named is Bacillus subtilis. Put plainly: Potency index, ratio of chloramphenicol MIC to compound MIC for Bacillus subtilis MTCC 10619 by serial dilution method. The format is functional.

For the molecule `O=C1Oc2ccc([N+](=O)[O-])cc2N/C1=C\C(=O)c1ccc(-c2ccccc2)cc1`, the zone of inhibition at 100 µg/mL in the data set on Streptomyces griseus [1] is 20 mm; in the data set with Bacillus subtilis [10], 18 mm; in the data set with Escherichia coli [11], 16 mm; in the data set with Staphylococcus aureus [12] it was 20 mm; with Trichoderma reesei [14], 10 mm; with Talaromyces funiculosus [19] it was 16 mm. In addition, the zone of inhibition at 100 µg/mL with Fusarium oxysporum [21] is 14 mm. For the same molecule, the MIC amounted to 12.5 µg/mL (≈ 32.4 µM) against Streptomyces griseus [2]; 6.25 µg/mL (≈ 16.2 µM) with Staphylococcus aureus [4]; 100 µg/mL (≈ 259 µM) against Trichoderma reesei [6] (ATCC 13631, 24 h); 25 µg/mL (≈ 64.7 µM) against Talaromyces funiculosus [8]; 25 µg/mL (≈ 64.7 µM) against Bacillus subtilis [9]; 25 µg/mL (≈ 64.7 µM) in the data set with Escherichia coli [13]. In addition, the MIC against Fusarium oxysporum [16] is 50 µg/mL (≈ 129 µM). Moreover, the viability at 72 h, 100 ug/ml in [3] was determined as 77.6%. Moreover, the viability at 72 h, 25 ug/ml in [5] was 91%. The “inhibition zone (IZ)” value with Aspergillus niger [7] is “inactive”. The MIC result in the data set with Aspergillus niger [15] was “inactive”. The viability at 72 h, 50 ug/ml in [17] was 83.5%. In the data set with Staphylococcus aureus [18], the Ratio was determined as 2. Also, the viability at 72 h, 250 ug/ml in data set [20] is 77.1%.

Consider `O=C1Oc2cc([N+](=O)[O-])ccc2N/C1=C\C(=O)C1CC1`, for which the zone of inhibition at 100 µg/mL was found to be 28 mm with Streptomyces griseus [1]; 8 mm with Aspergillus niger [7]; 24 mm in the data set with Bacillus subtilis [10]; 18 mm in the data set with Escherichia coli [11]; 10 mm with Staphylococcus aureus [12]; 6 mm with Talaromyces funiculosus [19]. Also, in the data set with Fusarium oxysporum [21], the zone of inhibition at 100 µg/mL worked out at 10 mm. For the same molecule, the minimal inhibitory concentration (MIC) in the data set on Streptomyces griseus [2] amounted to 3.12 µg/mL (≈ 11.4 µM); against Staphylococcus aureus [4], 12.5 µg/mL (≈ 45.6 µM); in the data set on Talaromyces funiculosus [8], 100 µg/mL (≈ 365 µM); in the data set with Bacillus subtilis [9], 3.12 µg/mL (≈ 11.4 µM); in the data set with Escherichia coli [13] it was 25 µg/mL (≈ 91.2 µM); in the data set on Aspergillus niger [15] (ATCC 9029, 24 h), 100 µg/mL (≈ 365 µM). Further, it took 50 µg/mL (≈ 182 µM) to inhibit growth with Fusarium oxysporum [16] (MIC). In addition, the viability at 72 h, 100 ug/ml in data set [3] was 83.3%. Besides, the figures for the Ratio in the data set on Bacillus subtilis [22], with Streptomyces griseus [23] and in the data set on Bacillus subtilis [24] were 8, 4 and 2, respectively. Also, the viability at 72 h, 25 ug/ml in data set [5] stood at 94.3%. Besides, the MIC result in the data set on Trichoderma reesei [6] was “inactive”. The “inhibition zone (IZ)” value in the data set on Trichoderma reesei [14] is “inactive”. Also, the viability at 72 h, 50 ug/ml in [17] is 90.9%. The viability at 72 h, 250 ug/ml in data set [20] stood at 76.3%.

In the case of `O=C1Oc2ccc([N+](=O)[O-])cc2N/C1=C\C(=O)c1ccc(C2CCCCC2)cc1`, the zone of inhibition at 100 µg/mL stood at 22 mm with Streptomyces griseus [1]; 18 mm in the data set with Aspergillus niger [7]; 16 mm in the data set with Bacillus subtilis [10]; 18 mm in the data set with Escherichia coli [11]; 20 mm in the data set on Staphylococcus aureus [12]; 20 mm in the data set with Trichoderma reesei [14]. Besides, the zone of inhibition at 100 µg/mL with Talaromyces funiculosus [19] was 16 mm; in the data set on Fusarium oxysporum [21], 10 mm. For the same molecule, the MIC against Streptomyces griseus [2] was 12.5 µg/mL (≈ 31.9 µM); in the data set on Staphylococcus aureus [4], 6.25 µg/mL (≈ 15.9 µM); against Trichoderma reesei [6] (ATCC 13631, 24 h) it was 25 µg/mL (≈ 63.7 µM); in the data set on Talaromyces funiculosus [8] it was 25 µg/mL (≈ 63.7 µM); against Bacillus subtilis [9], 12.5 µg/mL (≈ 31.9 µM); against Escherichia coli [13], 25 µg/mL (≈ 63.7 µM). In addition, the MIC with Aspergillus niger [15] (ATCC 9029, 24 h) is 25 µg/mL (≈ 63.7 µM); against Fusarium oxysporum [16], 50 µg/mL (≈ 127 µM). Further, the viability at 72 h, 100 ug/ml in data set [3] is 82.5%. In addition, the viability at 72 h, 25 ug/ml in [5] came out at 98.2%. Further, the viability at 72 h, 50 ug/ml in data set [17] was found to be 89.1%. Besides, the Ratio with Staphylococcus aureus [18] was 2. Further, the viability at 72 h, 250 ug/ml in data set [20] came to 79.2%.
